The values below come from patent US4906612A (priority 1988, dated 1990).

Data set [1] in a line: LD50 when intravenously injected in male mice. The data set is classed as in vivo. The source says:
The growth-promoting agent of the present invention not only promotes the growth of animals, but also improves feed utilization efficiency. The agent is also effective for the treatment of bacterial diseases.

Data set [2] relates to Cl. perfringens. The data set is classed as cell-based, Clostridium perfringens. The conditions noted are these: GAM agar, 24 hours at 37° C.
Data set [3] is described as follows: Growth promoting effect on chicks, 20 ppm in feed for 10 days (Table 2). The data set is classed as in vivo. The conditions noted are these: for Body weight gain, mean value ± standard error: chicks 8 to 18 days of age, 20 ppm in feed × 10 days; for Feed efficiency: chicks, no antibiotic group 1.70; for Body weight gain index: no antibiotic group = 100.0. As to the method: Growth promoting effect of PA-42867-A on chicks (8 days of age, Abaeker species) was determined using a known antibiotic, Thiopeptin, as a control. PA-42867-A and Thiopeptin were added to an antibiotic-free feed mash (crude protein content (CP): 18%) at a concentration of 20 ppm, and the chicks were raised for 10 days with the resulting feed according to the battery method. Specifically describing the method of experiment, newly hatched chicks were fed until 8 days of age with a feed ration of 23% CP by the flat feeding method, at which time the chicks were divided into three groups each containing 25-26 chicks (males and females, 12-13 chicks each) so that the average weights of the chicks in all groups were nearly the same. PA-42867-A group received 20 ppm of the antibiotic a day for 10 days, Thiopeptin group received 20 ppm for 10 days, and the control group received antibiotic-free feed of 18% CP for 10 days. The above feeding was conducted after dividing the chicks in each of these groups into sub-groups of 6-7 chicks and putting each sub-group in a cage (435×600×410 mm). The feeding was conducted for 10 days (until 18 days of age) at an environmental temperature of 26°±2°C. The effectiveness of the drug was evaluated based on the body weight gain and the feed efficiency observed during the 10 days period of the experiment.

A short description of data set [4]: Growth promoting effect on chicks, 20 ppm in feed for 13 days (Table 3). The data set is classed as in vivo. Particulars: for Feed efficiency, 10 days / Feed efficiency, 13 days / Body weight gain ± standard error, 13 days / Body weight gain ± standard error, 10 days: 20 ppm in feed; for Feed efficiency, 10 days / Body weight gain comparative index, 10 days: 10th day; for Feed efficiency, 10 days: no antibiotic group 1.69; for Feed efficiency, 13 days / Body weight gain comparative index, 13 days: 13th day; for Feed efficiency, 13 days: no antibiotic group 1.76; for Body weight gain ± standard error, 13 days: chicks 8-21 days of age, measured on the 13th day; for Body weight gain ± standard error, 10 days: chicks from 8 days of age, measured on the 10th day; for Body weight gain comparative index, 10 days / Body weight gain comparative index, 13 days: weight gain of the control group regarded as 100. As to the method:
In the same manner, another growth promoting tests were conducted on des-(4-epi-vancosaminyl)PA-42867-A and des-(4-epi-vancosaminyl-0-glucosyl)PA-42867-A by giving 20 ppm of the test drug to chicks of 8-21 days of age for 13 days, using Thiopeptin as a control.
The newly hatched chicks were fed until eight days of age with a feed mash (crude protein content (CP):23%) without addition of any antibiotic by means of the flat feeding. Then, the chicks were divided into four groups each containing 24 chicks (males and females, 12 each). Each group was placed in four cages after dividing into four unisexual sub-groups, each consisting of 6-7 chicks, and raised for 13 days with an animal feed of CP 18% with or without antibiotics. Thus, each of four groups received 20 ppm of des-(4-epi-vancosaminyl)PA-42867-A, 20 ppm of des(4-epi-vancosaminyl-0-glucosyl)PA-42867-A, 20 ppm of Thiopeptin, and no antibiotic, respectively.
Body weight gain and feed efficiency were measured on the 10th and the 13th day.

In brackets after ≈: the same amount, converted by molar mass. Where two headings read alike, the source gives them in different places. A value given as a limit tells only on which side of the number the result lay.

Broadly, the LD50 is the dose expected to kill half of the subjects tested. Higher therefore signals a less toxic substance. As usually defined, the MIC is the least concentration at which growth counts as inhibited. The low end stands for inhibition by little substance, the high end for a need for much substance. On to `CNC(CC(C)C)C(=O)NC1C(=O)NC(CC(N)=O)C(=O)NC2C(=O)NC3C(=O)NC(C(=O)NC(C(=O)O)c4cc(O)cc(O)c4-c4cc3ccc4O)C(OC3CC(C)(N)C(O)C(C)O3)c3ccc(c(Cl)c3)Oc3cc2cc(c3OC2OC(CO)C(O)C(O)C2OC2CC(C)(N)C(O)C(C)O2)Oc2ccc(cc2)C1O` (stereo not drawn) [Compound 1, PA-42867-A], for which, in data set [1], the LD50 was 1955 mg/kg. The minimal inhibitory concentration (MIC) in data set [2] (strain 3C-01, origin chicken) stood at 0.39 µg/mL (≈ 0.25 µM); in data set [2] (strain 6B-10, origin cow), 0.2 µg/mL (≈ 0.128 µM); in data set [2] (strain 9C-02, origin chicken), 0.2 µg/mL (≈ 0.128 µM); in data set [2] (strain 02441, origin chicken), 0.39 µg/mL (≈ 0.25 µM); in data set [2] (strain CW-1970, origin cow), 0.39 µg/mL (≈ 0.25 µM); in data set [2] (strain FC 2208/75, origin cow) it was 0.39 µg/mL (≈ 0.25 µM). In addition, the minimal inhibitory concentration (MIC) stood at 0.39 µg/mL (≈ 0.25 µM) in data set [2] (strain NCTC-8239, origin cow); 0.39 µg/mL (≈ 0.25 µM) in data set [2] (strain NCTC-8798, origin cow); 0.39 µg/mL (≈ 0.25 µM) in data set [2] (strain NCTC-10239, origin cow); 0.39 µg/mL (≈ 0.25 µM) in data set [2] (strain S-79, origin cow); 0.39 µg/mL (≈ 0.25 µM) in data set [2] (strain SP07, origin chicken). Also, the “Feed efficiency compared with the group raised with antibiotic-free feed (in words)” value in data set [3] (20 ppm × 10 days) is on record as “better results in feed efficiency”. In addition, the “Body weight gain compared with the no-antibiotic control group and the Thiopeptin group (in words)” value in data set [3] (20 ppm × 10 days, p<0.01) is recorded as “significantly high body weight gain”. The “Body weight gain, mean value ± standard error” value in data set [3] amounted to 332.0 ± 6.71 g. In addition, the Feed efficiency in data set [3] (20 ppm × 10 days) is 1.53. Besides, in data set [3] (20 ppm × 10 days), the “Body weight gain index” value was found to be 110.0. The “Feed efficiency, 10 days” value in data set [4] came to 1.54. Besides, the “Feed efficiency, 13 days” value in data set [4] worked out at 1.66. In data set [4], the “Body weight gain ± standard error, 13 days” value was determined as 442.6 ± 7.8 g. The “Body weight gain ± standard error, 10 days” value in data set [4] was determined as 328.9 ± 6.3 g. For the same compound, in data set [4], the “Body weight gain comparative index, 10 days” value came out at 105.4. In addition, in data set [4], the “Body weight gain comparative index, 13 days” value was 103.9.

As for `CNC(CC(C)C)C(=O)NC1C(=O)NC(CC(N)=O)C(=O)NC2C(=O)NC3C(=O)NC(C(=O)NC(C(=O)O)c4cc(O)cc(O)c4-c4cc3ccc4O)C(OC3CC(C)(N)C(O)C(C)O3)c3ccc(c(Cl)c3)Oc3cc2cc(c3OC2OC(CO)C(O)C(O)C2O)Oc2ccc(cc2)C1O` (stereo not drawn) [Compound 2, des-(4-epi-vancosaminyl) PA-42867-A], the 50% lethal dose (LD50) in data set [1] is above 3000 mg/kg. For the same compound, the MIC was determined as 1.56 µg/mL (≈ 1.1 µM) in data set [2] (strain 3C-01, origin chicken); 1.56 µg/mL (≈ 1.1 µM) in data set [2] (strain 6B-10, origin cow); 1.56 µg/mL (≈ 1.1 µM) in data set [2] (strain 9C-02, origin chicken); 1.56 µg/mL (≈ 1.1 µM) in data set [2] (strain 02441, origin chicken); 1.56 µg/mL (≈ 1.1 µM) in data set [2] (strain CW-1970, origin cow); 1.56 µg/mL (≈ 1.1 µM) in data set [2] (strain FC 2208/75, origin cow). Further, the minimum inhibitory concentration (MIC) in data set [2] (strain NCTC-8239, origin cow) was determined as 1.56 µg/mL (≈ 1.1 µM); in data set [2] (strain NCTC-8798, origin cow), 1.56 µg/mL (≈ 1.1 µM); in data set [2] (strain NCTC-10239, origin cow), 1.56 µg/mL (≈ 1.1 µM); in data set [2] (strain S-79, origin cow), 0.78 µg/mL (≈ 0.551 µM); in data set [2] (strain SP07, origin chicken) it was 1.56 µg/mL (≈ 1.1 µM). Also, the “Feed efficiency, 10 days” value in data set [4] worked out at 1.62. For the same compound, in data set [4], the “Feed efficiency, 13 days” value is recorded as 1.66. Also, the “Body weight gain ± standard error, 13 days” value in data set [4] came out at 447.4 ± 11.5 g. The “Body weight gain ± standard error, 10 days” value in data set [4] is given as 324.6 ± 8.3 g. Moreover, the “Body weight gain comparative index, 10 days” value in data set [4] was 104.0. The “Body weight gain comparative index, 13 days” value in data set [4] stood at 105.0.

In the case of `CNC(CC(C)C)C(=O)NC1C(=O)NC(CC(N)=O)C(=O)NC2C(=O)NC3C(=O)NC(C(=O)NC(C(=O)O)c4cc(O)cc(O)c4-c4cc3ccc4O)C(OC3CC(C)(N)C(O)C(C)O3)c3ccc(c(Cl)c3)Oc3cc2cc(c3O)Oc2ccc(cc2)C1O` (stereo not drawn) [Compound 3, des-(4-epi-vancosaminyl-0-glucosyl)PA-42867-A], in data set [1], the LD50 was 205 mg/kg. In addition, the MIC in data set [2] (strain 3C-01, origin chicken) was 0.78 µg/mL (≈ 0.623 µM); in data set [2] (strain 6B-10, origin cow), 0.78 µg/mL (≈ 0.623 µM); in data set [2] (strain 9C-02, origin chicken), 0.78 µg/mL (≈ 0.623 µM); in data set [2] (strain 02441, origin chicken), 0.78 µg/mL (≈ 0.623 µM); in data set [2] (strain CW-1970, origin cow), 0.78 µg/mL (≈ 0.623 µM); in data set [2] (strain FC 2208/75, origin cow), 0.78 µg/mL (≈ 0.623 µM). Also, the MIC in data set [2] (strain NCTC-8239, origin cow) is 0.78 µg/mL (≈ 0.623 µM); in data set [2] (strain NCTC-8798, origin cow) it was 0.78 µg/mL (≈ 0.623 µM); in data set [2] (strain NCTC-10239, origin cow) it was 0.78 µg/mL (≈ 0.623 µM); in data set [2] (strain S-79, origin cow), 0.39 µg/mL (≈ 0.311 µM); in data set [2] (strain SP07, origin chicken), 0.78 µg/mL (≈ 0.623 µM).

Thiopeptin [reference compound]: in data set [3] (20 ppm × 10 days), the “Feed efficiency compared with the group raised with antibiotic-free feed (in words)” value is on record as “better results in feed efficiency”, the Feed efficiency stood at 1.58 and the “Body weight gain index” value was determined as 103.9. Besides, in data set [3], the “Body weight gain, mean value ± standard error” value amounted to 313.7 ± 8.80 g. In data set [4], the “Feed efficiency, 10 days” value amounted to 1.61; the “Feed efficiency, 13 days” value is recorded as 1.70; the “Body weight gain ± standard error, 13 days” value is 445.5 ± 11.1 g; the “Body weight gain ± standard error, 10 days” value is given as 319.5 ± 7.5 g. In data set [4], the “Body weight gain comparative index, 10 days” value is 102.4 and the “Body weight gain comparative index, 13 days” value was determined as 104.6.
